These are literature values, as cited in US20120128784A1, “COMPOSITION CONTAINING BEE VENOM AS AN ACTIVE INGREDIENT FOR PREVENTING AND TREATING ACNE” (Dong Sung Pharm. Co., Ltd., priority 2009, published 2012).

The test system of the series is edema. Particulars: injected into arthritis patients.

`CC[C@H](C)[C@H](NC(=O)CN)C(=O)NCC(=O)N[C@@H](C)C(=O)N[C@H](C(=O)N[C@@H](CC(C)C)C(=O)N[C@@H](CCCCN)C(=O)N[C@H](C(=O)N[C@@H](CC(C)C)C(=O)N[C@H](C(=O)N[C@H](C(=O)NCC(=O)N[C@@H](CC(C)C)C(=O)N1CCC[C@H]1C(=O)N[C@@H](C)C(=O)N[C@@H](CC(C)C)C(=O)N[C@H](C(=O)N[C@@H](CO)C(=O)N[C@@H](Cc1c[nH]c2ccccc12)C(=O)N[C@H](C(=O)N[C@@H](CCCCN)C(=O)N[C@@H](CCCNC(=N)N)C(=O)N[C@@H](CCCCN)C(=O)N[C@@H](CCCNC(=N)N)C(=O)N[C@@H](CCC(N)=O)C(=O)N[C@@H](CCC(N)=O)C(N)=O)[C@@H](C)CC)[C@@H](C)CC)[C@@H](C)O)[C@@H](C)O)C(C)C)C(C)C` [melittin]: the inhibition of edema result is “edema was significantly inhibited”.
